Assay [1] has as its system C8166. Description: Tested against HIV-1 […] for Inhibition of viral replication by determining reduction of syncytia formation and antigen gp120 in C8166 cells, estimated by ELISA. The class given is functional, cell-based. The note with it: Homo sapiens.
For assay [2], the system named is C8166. Description: Compound was evaluated for its cytotoxicity against C8166 cell line. The assay is classed as functional. The following applies: Homo sapiens, read-out: TC50 (the source's name).

Usually EC50 stands for the concentration that produces a half-maximal response. Regarding `CCCCOn1c(CCC)nc2c(C)cccc21`, the EC50 with C8166 [1] is 0.5 µM. As for `CC(C)=CCOn1c(C=C(C)C)nc2c(C)cccc21`, in the assay on C8166 [2], the CC50 is 50 µM. Further, the EC50 with C8166 [1] was 10 µM.

As to `CCOn1c(C)nc2c(C)cccc21`, the EC50 in the assay with C8166 [1] is 8 µM. The same measure, in the same setting: the result for `CCCCCOn1c(CCCC)nc2c(C)cccc21` reads 8 µM; that for `CCCCCCCOn1c(CCCCCC)nc2c(C)cccc21`, 40 µM.

For `COc1ccc2nc(C=C(C)C)n(OCC=C(C)C)c2c1`, the CC50 in the assay with C8166 [2] was determined as 80 µM. Further, the EC50 in the assay with C8166 [1] was 16 µM. Regarding `CC(C)=CCN1Cc2cc(Cl)cc3[nH]c(=S)n(c23)C[C@@H]1C`, the CC50 in the assay on C8166 [2] is 62 µM. In the case of `CC(C)=CCOn1c(C=C(C)C)nc2ccc(C)cc21`, in the assay on C8166 [2], the CC50 came to 50 µM. For the same compound, the EC50 with C8166 [1] was 10 µM. `C=CCOn1c(C=C)nc2ccc(C)cc21`: in the assay with C8166 [2], the CC50 turned out to be 20 µM. Also, the EC50 in the assay with C8166 [1] was 16 µM. Regarding `C=CCOn1c(C=C)nc2c(C)cccc21`, the CC50 with C8166 [2] was determined as 16 µM. Also, in the assay on C8166 [1], the EC50 was 16 µM. In the case of `C=CCOn1c(C=C)nc2ccc(OC)cc21`, the CC50 in the assay with C8166 [2] was 80 µM. Moreover, in the assay with C8166 [1], the EC50 is 80 µM.

For `Cc1cn([C@H]2C[C@H](N=[N+]=[N-])[C@@H](CO)O2)c(=O)[nH]c1=O` [ZIDOVUDINE], the CC50 in the assay on C8166 [2] was above 1000 µM.

Values taken from ChEMBL document CHEMBL1151996, “Structure-activity relationships of anti-HIV-1 N-alkoxy- and N-allyloxy-benzimidazoles” (Bioorg Med Chem Lett, 1997).
